Results: BindingDB's records for patent USRE49080 (Novartis AG, 2022)

Biological target: T1, Sodium/glucose cotransporter 2 (Homo sapiens, UniProt P31639)
T1 sequence (P31639 whole entry): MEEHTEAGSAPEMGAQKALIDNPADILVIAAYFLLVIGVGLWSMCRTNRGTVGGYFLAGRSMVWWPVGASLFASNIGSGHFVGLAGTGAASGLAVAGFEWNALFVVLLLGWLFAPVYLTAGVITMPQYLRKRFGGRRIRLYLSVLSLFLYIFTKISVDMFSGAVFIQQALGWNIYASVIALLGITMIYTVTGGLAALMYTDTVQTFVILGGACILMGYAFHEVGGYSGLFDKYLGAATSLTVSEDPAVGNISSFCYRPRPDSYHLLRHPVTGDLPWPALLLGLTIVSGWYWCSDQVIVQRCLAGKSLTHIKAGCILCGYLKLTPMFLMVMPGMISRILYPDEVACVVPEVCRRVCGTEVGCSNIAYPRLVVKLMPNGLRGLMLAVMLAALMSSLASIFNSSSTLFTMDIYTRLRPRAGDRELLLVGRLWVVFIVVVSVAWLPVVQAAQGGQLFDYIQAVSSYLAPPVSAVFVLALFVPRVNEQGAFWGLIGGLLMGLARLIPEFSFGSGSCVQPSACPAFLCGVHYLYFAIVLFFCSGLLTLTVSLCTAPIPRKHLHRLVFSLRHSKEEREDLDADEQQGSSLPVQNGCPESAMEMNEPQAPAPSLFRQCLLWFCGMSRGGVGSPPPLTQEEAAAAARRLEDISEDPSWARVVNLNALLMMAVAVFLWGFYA
Assay: Inhibitory Effect on the Sodium-dependent Glucose Co-Transporter SGLT, SGLT1 and SGLT2
Protocol: The SGLT-2 assay is carried out as follows: CHO-hSGLT2 cells are cultivated in Ham's F12 Medium (BioWhittaker) with 10% foetal calf serum and 250 μg/mL zeocin (Invitrogen), and HEK293-hSGLT2 cells are cultivated in DMEM medium with 10% foetal calf serum and 250 μg/mL zeocin (Invitrogen). The cells are detached from the culture flasks by washing twice with PBS and subsequently treating with trypsin/EDTA. After the addition of cell culture medium the cells are centrifuged, resuspended in culture medium and counted in a Casy cell counter. Then 40,000 cells per well are seeded into a white, 96-well plate coated with poly-D-lysine and incubated overnight at 37° C., 5% CO2. […] 250 μl of assay buffer and 5 μl of test compound are then added to each well and the plate is incubated for a further 15 minutes in the incubator. 5 μl of 10% DMSO are used as the negative control. The reaction is started by adding 5 μl of 14 C-AMG (0.05 μCi) to each well. After 2 hours' incubation at 37° C., 5% CO2, the cells are washed again with 250 μl of PBS ([…]) and then lysed by the addition of 25 μl of 0.1 N NaOH (5 min. at 37° C.). 200 μl of MicroScint20 (Packard) are added to each well and incubation is continued for a further 20 min at 37° C.

CN1CCOc2ccc(Cc3cc([C@@H]4O[C@H](CO)[C@@H](O)[C@H](O)[C@H]4O)ccc3Cl)cc21 [USRE49080, Example 11] was tested, and the IC50 was 1.4 nM.
